Laboratory results published in PubChem BioAssay (NCI).
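GI50 = concentration required for 50% inhibition of growth. TGI: total growth inhibition.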

What was measured:
Experiment in all cases: growth of human tumour cells (NCI), 384-well format
CCRF-CEM leukemia = system: CCRF-CEM leukemia
HCT-116 colon = system: HCT-116 colon
HL-60(TB) leukemia = system: HL-60(TB) leukemia
HOP-92 NSCLC = system: HOP-92 NSCLC
MCF7 breast = system: MCF7 breast
NCI-H226 lung = system: NCI-H226 lung
OVCAR-5 ovarian = system: OVCAR-5 ovarian
RXF 393 renal = system: RXF 393 renal
SK-MEL-5 melanoma = system: SK-MEL-5 melanoma
SN12C renal = system: SN12C renal
SW-620 colon = system: SW-620 colon
T-47D breast = system: T-47D breast
UACC-257 melanoma = system: UACC-257 melanoma

With `Nc1ncn(C2OC(CO)C(O)C2O)c(=O)n1` (stereo unspecified) the GI50 (CCRF-CEM leukemia) was 0.993 µM, the TGI (CCRF-CEM leukemia) was 3.67 µM and the GI50 (HCT-116 colon) was 0.627 µM. The TGI (HCT-116 colon) was 2.57 µM, the GI50 (HL-60(TB) leukemia) was 0.372 µM and the TGI (HL-60(TB) leukemia) was 0.806 µM. For the same molecule, the GI50 (HOP-92 NSCLC) was 2.36 µM, the TGI (HOP-92 NSCLC) was 30 µM and the GI50 (MCF7 breast) was 1.56 µM. It also gave a TGI (MCF7 breast) greater than 29.8 µM, a GI50 (NCI-H226 lung) of 4.46 µM and a TGI (NCI-H226 lung) of 27.8 µM. The GI50 (OVCAR-5 ovarian) was 3.22 µM, the TGI (OVCAR-5 ovarian) was 23 µM and the GI50 (RXF 393 renal) was 1.25 µM. For the same molecule, the TGI (RXF 393 renal) was 10.9 µM, the GI50 (SK-MEL-5 melanoma) was 0.628 µM and the TGI (SK-MEL-5 melanoma) was 2.12 µM. The GI50 (SN12C renal) was 1.58 µM, the TGI (SN12C renal) was 35.7 µM and the GI50 (SW-620 colon) was 2.25 µM. It also gave a TGI (SW-620 colon) greater than 34.7 µM, a GI50 (T-47D breast) of 4.67 µM and a TGI (T-47D breast) greater than 37.6 µM. For the same molecule, the GI50 (UACC-257 melanoma) was 6.88 µM and the TGI (UACC-257 melanoma) was 33.3 µM.
